In US6017914A, “Benzo[b]thiophene compounds, intermediates, formulations, and methods” (Eli Lilly and Company, priority 1997, dated 2000):

Key:
[1] = tested on: uterus; assay: Post-menopausal ovariectomized rat model: wet uterine weight; type: in vivo, female Sprague Dawley rats; conditions: daily for 4 days
[2] = tested on: Serum Cholesterol; assay: Serum cholesterol in ovariectomized rats (Cholesterol Analysis); type: in vivo, female Sprague Dawley rats; conditions: daily for 4 days

## C#Cc1ccc2c(C(=O)c3ccc(OCCN4CCCCC4)cc3)c(-c3ccc(O)cc3)sc2c1 [Example 6, [2-(4-Hydroxyphenyl)-6-ethynylbenzo[b]thien-3-yl][4-[2-(1-piperidinyl)ethoxy]phenyl]methanone]
[1]; 0.1 mg/kg PO
  Uterine Wt. (% Inc.) versus the ovariectomized controls: 14.3%
[1]; 1 mg/kg PO
  Uterine Wt. (% Inc.) versus the ovariectomized controls: 27.8%
[1]; 10 mg/kg PO
  Uterine Wt. (% Inc.) versus the ovariectomized controls: 22.5%

## CCCCOC(=O)c1ccc2c(C(=O)c3ccc(OCCN4CCCCC4)cc3)c(-c3ccc(O)cc3)sc2c1 [Example 2, [2-(4-Hydroxyphenyl)-6-n-butoxycarbonylbenzo[b]thien-3-yl][4-[2-(1-piperidinyl)ethoxy]phenyl]methanone]
[2]; 0.1 mg/kg PO
  Serum Cholesterol (% Dec.) versus ovariectomized controls: -1.2%
[1]; 0.1 mg/kg PO
  Uterine Wt. (% Inc.) versus the ovariectomized controls: 19.4%
[1]; 1 mg/kg PO
  Uterine Wt. (% Inc.) versus the ovariectomized controls: 16.8%
[1]; 10 mg/kg PO
  Uterine Wt. (% Inc.) versus the ovariectomized controls: 52.5%

## CC(=O)c1ccc2c(C(=O)c3ccc(OCCN4CCCCC4)cc3)c(-c3ccc(O)cc3)sc2c1 [Example 5, [2-(4-Hydroxyphenyl)-6-acetylbenzo[b]thien-3-yl][4-[2-(1-piperidinyl)ethoxy]phenyl]methanone]
[2]; 0.1 mg/kg PO
  Serum Cholesterol (% Dec.) versus ovariectomized controls: -6.3%
[1]; 0.1 mg/kg PO
  Uterine Wt. (% Inc.) versus the ovariectomized controls: 18.8%
[1]; 1 mg/kg PO
  Uterine Wt. (% Inc.) versus the ovariectomized controls: 51.8%
[1]; 10 mg/kg PO
  Uterine Wt. (% Inc.) versus the ovariectomized controls: 69.4%

## Cl.O=C(O)c1ccc2c(C(=O)c3ccc(OCCN4CCCCC4)cc3)c(-c3ccc(O)cc3)sc2c1 [Example 4, [2-(4-Hydroxyphenyl)-6-carboxybenzo[b]thien-3-yl][4-[2-(1-piperidinyl)ethoxy]phenyl]methanone Hydrochloride]
[2]; 0.1 mg/kg PO
  Serum Cholesterol (% Dec.) versus ovariectomized controls: 0.6%
[1]; 0.1 mg/kg PO
  Uterine Wt. (% Inc.) versus the ovariectomized controls: 18.8%
[1]; 1 mg/kg PO
  Uterine Wt. (% Inc.) versus the ovariectomized controls: 27.2%
[1]; 10 mg/kg PO
  Uterine Wt. (% Inc.) versus the ovariectomized controls: 29.6%

## CC(C)COC(=O)c1ccc2c(C(=O)c3ccc(OCCN4CCCCC4)cc3)c(-c3ccc(O)cc3)sc2c1 [Example 3]
[2]; 0.1 mg/kg PO
  Serum Cholesterol (% Dec.) versus ovariectomized controls: -2.4%
[2]; 1 mg/kg PO
  Serum Cholesterol (% Dec.) versus ovariectomized controls: 8.7%
[2]; 10 mg/kg PO
  Serum Cholesterol (% Dec.) versus ovariectomized controls: 58.0%
[1]; 0.1 mg/kg PO
  Uterine Wt. (% Inc.) versus the ovariectomized controls: 11.8%
[1]; 1 mg/kg PO
  Uterine Wt. (% Inc.) versus the ovariectomized controls: 21.7%
[1]; 10 mg/kg PO
  Uterine Wt. (% Inc.) versus the ovariectomized controls: 47.1%

## COC(=O)c1ccc2c(C(=O)c3ccc(OCCN4CCCCC4)cc3)c(-c3ccc(O)cc3)sc2c1.Cl [Example 1, [2-(4-Hydroxyphenyl)-6-methoxycarbonylbenzo[b]thien-3-yl][4-[2-(1-piperidinyl)ethoxy]phenyl]methanone Hydrochloride]
[2]; 0.1 mg/kg PO
  Serum Cholesterol (% Dec.) versus ovariectomized controls: -8.6%
[1]; 0.1 mg/kg PO
  Uterine Wt. (% Inc.) versus the ovariectomized controls: 46.9%
[1]; 1 mg/kg PO
  Uterine Wt. (% Inc.) versus the ovariectomized controls: 19.1%
[1]; 10 mg/kg PO
  Uterine Wt. (% Inc.) versus the ovariectomized controls: 45.2%
